Results: patent US20080319000A1, “Use of 3,1IB-Cis-Dihydrotetrabenazine for the Treatment of Symptoms of Huntingtons Disease” (CAMBRIDGE LABORATORIES (IRELAND) LIMITED, priority 2005, published 2008)

Assays:
[1] = test system: B6CBA-Tg(HDexon1)62Gpb/1J transgenic (R6/2) mice; test: Locomotor activity test in transgenic mice model of Huntington's disease; format: in vivo; settings: average recorded results, 5 mg/kg i.p.
Description: B6CBA-Tg(HDexon1)62Gpb/1J transgenic (R6/2) mice are transgenic for the 5-end of the human HD gene carrying (CAG) 115-(CAG) 150 repeat expansions. […] These symptoms appear between 6 and 8 weeks of age. […] The mice had access to commercial mouse chow (mouse/rate breeding, ref. 9341 Provimi Kliba, Switzerland) and tap water. […] The mice were placed in a transparent plastic box of floor dimensions 30×30 cm in a room with low light intensity (maximum 20 lux). Locomotor activity was determined during a 10 minute period using a video image analyzer (Videotrack, View Point, Lyon, France). The number, distance and average speed of ambulatory movements were measured. The mice were returned to their home cages after testing. Group 1: hemizygote Transgenic B6CBA-Tg(HDexon 1)62Gpb/1J mice treated with vehicle i.p. once a day for 4 days (from day 0 to day 3) Group 2: hemizygote Transgenic B6CBA-Tg(HDexon 1)62Gpb/1J mice treated with 5 mg/kg i.p. of test item once a day for 4 days (from day 0 to day 3) […] • Test item administration • Simplified Irwin test, 40 min after administration • Locomotor activity test, immediately after the simplified Irwin test Simplified Irwin scores were analysed using non-parametric Mann-Whitney's U test. Locomotor activity data were analysed using Dunnett's t-test. Rotarod scores were analysed using the non-parametric Mann-Whitney's U-test. Statistical analyses were performed using the software Statview SE^+graphics software, Brain Power.

[2] = biological target: 5-hydroxytryptamine isoform 1b (Homo sapiens, UniProt P28222); test: 5-hydroxytryptamine 1b inhibition; format: binding
[3] = biological target: serotonin transporter protein SERT (Homo sapiens, UniProt P31645); test: Serotonin transporter SERT inhibition; format: binding
[4] = biological target: 5-hydroxytryptamine isoform 1d (Homo sapiens, UniProt P28221); test: 5-hydroxytryptamine 1d inhibition; format: binding
[5] = biological target: T1, monoamine oxidase isoform B (Homo sapiens, UniProt P27338); test: Monoamine oxidase B inhibition; format: biochemical
T1 sequence (P27338 1-520): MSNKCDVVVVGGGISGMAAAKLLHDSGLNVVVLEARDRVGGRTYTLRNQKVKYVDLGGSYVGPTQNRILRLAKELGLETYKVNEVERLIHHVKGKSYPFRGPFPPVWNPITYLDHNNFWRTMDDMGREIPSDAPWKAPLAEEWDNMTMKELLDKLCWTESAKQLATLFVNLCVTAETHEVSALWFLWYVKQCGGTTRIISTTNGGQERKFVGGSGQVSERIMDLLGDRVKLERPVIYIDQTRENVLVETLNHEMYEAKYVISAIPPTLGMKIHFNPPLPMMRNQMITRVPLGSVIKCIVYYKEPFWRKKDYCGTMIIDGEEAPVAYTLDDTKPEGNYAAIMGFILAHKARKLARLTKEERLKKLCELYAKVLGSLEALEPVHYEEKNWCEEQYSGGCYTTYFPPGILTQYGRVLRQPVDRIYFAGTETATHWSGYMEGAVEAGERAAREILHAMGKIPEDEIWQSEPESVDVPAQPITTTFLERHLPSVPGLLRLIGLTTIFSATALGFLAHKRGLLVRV

[6] = test system: B6CBA-Tg(HDexon1)62Gpb/1J transgenic (R6/2) mice; test: Rotarod test in transgenic mice model of Huntington's disease; format: in vivo; settings: 5 mg/kg i.p. Day 0 to Day 3
Description: B6CBA-Tg(HDexon1)62Gpb/1J transgenic (R6/2) mice are transgenic for the 5-end of the human HD gene carrying (CAG) 115-(CAG) 150 repeat expansions. […] These symptoms appear between 6 and 8 weeks of age. Female B6CBa-Tg(HDexon1)62Gpb/1J transgenic mice (Jackson Laboratory, USA) were housed 5 per cage in an enriched environment under a light-dark cycle of 12 h-12 h (light on at 7.00 am, off at 7.00 pm) at a room temperature of 21±2° C., with 50±15% humidity. The mice had access to commercial mouse chow (mouse/rate breeding, ref. 9341 Provimi Kliba, Switzerland) and tap water. […] Two consecutive days before the first administration, animals were trained to use the rotarod: they were placed on an accelerating rotarod (Ugo Basile, Italy) for a maximum time of 450 seconds. They went through 2 training sessions starting with 4 rpm for 300 seconds, then staying at 40 rpm for 150 seconds. The two training sessions were given at 1 hour intervals. On the days of testing, each animal was subjected to one trial under the conditions described above. Each trial was terminated when the mouse fell or when it had stayed on the rotarod for 450 seconds. The mice were returned to their home cages after testing. Group 1: hemizygote Transgenic B6CBA-Tg(HDexon 1)62Gpb/1J mice treated with vehicle i.p. once a day for 4 days (from day 0 to day 3) Group 2: hemizygote Transgenic B6CBA-Tg(HDexon 1)62Gpb/1J mice treated with 5 mg/kg i.p. of test item once a day for 4 days (from day 0 to day 3) […] • Test item administration • Simplified Irwin test, 40 minutes after administration • Rotarod test, immediately after the simplified Irwin test • Test item administration • Simplified Irwin test, 40 min after administration • Rotarod test, immediately after simplified #Irwin test Simplified Irwin scores were analysed using non-parametric Mann-Whitney's U test. Locomotor activity data were analysed using Dunnett's t-test. Rotarod scores were analysed using the non-parametric Mann-Whitney's U-test. Statistical analyses were performed using the software Statview SE^+graphics software, Brain Power.

[7] = DAY 0, 40 mn after administration
[8] = DAY 2, 40 mn after administration

Sequence of serotonin transporter protein SERT (P31645 whole entry, canonical isoform): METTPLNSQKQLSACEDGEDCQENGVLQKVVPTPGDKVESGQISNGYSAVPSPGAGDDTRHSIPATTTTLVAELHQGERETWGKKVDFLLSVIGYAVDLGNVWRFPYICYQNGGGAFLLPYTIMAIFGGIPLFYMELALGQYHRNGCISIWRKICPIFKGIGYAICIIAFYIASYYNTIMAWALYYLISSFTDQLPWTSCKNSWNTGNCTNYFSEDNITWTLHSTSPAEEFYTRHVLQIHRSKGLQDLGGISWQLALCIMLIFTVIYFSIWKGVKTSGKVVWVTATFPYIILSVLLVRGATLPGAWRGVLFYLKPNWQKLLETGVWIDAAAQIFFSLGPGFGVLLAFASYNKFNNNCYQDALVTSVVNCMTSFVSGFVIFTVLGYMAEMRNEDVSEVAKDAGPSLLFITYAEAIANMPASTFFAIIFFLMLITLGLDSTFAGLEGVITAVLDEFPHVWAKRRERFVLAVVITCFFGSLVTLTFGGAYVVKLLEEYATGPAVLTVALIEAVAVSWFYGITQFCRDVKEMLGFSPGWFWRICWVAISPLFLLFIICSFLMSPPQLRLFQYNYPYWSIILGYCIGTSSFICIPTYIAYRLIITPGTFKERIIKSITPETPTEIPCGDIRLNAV
Sequence of 5-hydroxytryptamine isoform 1d (P28221 whole entry, canonical isoform): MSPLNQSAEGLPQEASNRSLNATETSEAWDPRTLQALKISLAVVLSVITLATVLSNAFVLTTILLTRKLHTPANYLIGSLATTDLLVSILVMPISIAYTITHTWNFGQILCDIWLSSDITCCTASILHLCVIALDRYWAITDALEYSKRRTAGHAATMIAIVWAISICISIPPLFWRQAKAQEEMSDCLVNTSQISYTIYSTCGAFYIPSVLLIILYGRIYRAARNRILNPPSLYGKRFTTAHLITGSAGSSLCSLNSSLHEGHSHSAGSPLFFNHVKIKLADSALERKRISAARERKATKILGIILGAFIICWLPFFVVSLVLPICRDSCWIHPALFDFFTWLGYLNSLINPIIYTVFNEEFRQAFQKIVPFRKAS
Sequence of 5-hydroxytryptamine isoform 1b (P28222 whole entry, canonical isoform): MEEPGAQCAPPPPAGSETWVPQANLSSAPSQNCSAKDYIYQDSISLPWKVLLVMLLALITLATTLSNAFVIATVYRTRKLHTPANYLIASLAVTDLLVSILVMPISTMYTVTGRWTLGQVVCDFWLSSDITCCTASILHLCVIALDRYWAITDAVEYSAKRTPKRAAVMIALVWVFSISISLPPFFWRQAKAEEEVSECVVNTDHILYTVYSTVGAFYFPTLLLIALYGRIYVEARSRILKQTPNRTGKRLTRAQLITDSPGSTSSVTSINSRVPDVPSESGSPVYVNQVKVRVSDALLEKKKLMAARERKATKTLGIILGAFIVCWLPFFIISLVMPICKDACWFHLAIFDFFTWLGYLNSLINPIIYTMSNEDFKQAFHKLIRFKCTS

COc1cc2c(cc1OC)[C@H]1C[C@H](O)[C@@H](CC(C)C)CN1CC2 (single isomer, unassigned) [Isomer B]
Inactivity Duration [1, 7]: 184 ± 31 s
Large movements Duration [1, 7]: 99 ± 13 s
Large movements Occurence (number) [1, 7]: 280 ± 41 number
Large movements Speed [1, 7]: 13.0 ± 0.5 cm/s
Inactivity Duration ([1]; DAY 0, before administration): 149 ± 27 s
Large movements Duration ([1]; DAY 0, before administration): 128 ± 16 s
Large movements Occurence (number) ([1]; DAY 0, before administration): 309 ± 37 number
Large movements Speed ([1]; DAY 0, before administration): 13.2 ± 0.5 cm/s
Inactivity Duration [1, 8]: 134 ± 18 s
Large movements Duration [1, 8]: 123 ± 14 s
Large movements Occurence (number) [1, 8]: 322 ± 40 number
Large movements Speed [1, 8]: 13.9 ± 0.7 cm/s
Inactivity Duration ([1]; DAY 24): 67 ± 42 s
Large movements Duration ([1]; DAY 24): 148 ± 34 s
Large movements Occurence (number) ([1]; DAY 24): 818 ± 168 number
Large movements Speed ([1]; DAY 24): 11.2 ± 0.9 cm/s
inhibitory activity against 5-hydroxytryptamine isoform 1b [2]: no inhibitory activity
inhibition of the serotonin transporter protein SERT [3]: potent inhibitors
inhibitory activity against 5-hydroxytryptamine isoform 1d [4]: no inhibitory activity
inhibitory activity against monoamine oxidase isoform B [5]: no inhibitory activity
Measured latencies to fall from Rotarod ([6]; Day 0, prior to 1st administration): 68.4 ± 17.7 s
Measured latencies to fall from Rotarod ([6]; Day 1): 91.4 ± 18.1 s
Measured latencies to fall from Rotarod ([6]; Day 3): 59.4 ± 11.2 s
Measured latencies to fall from Rotarod ([6]; Day 9): 29.0 ± 12.1 s
Measured latencies to fall from Rotarod ([6]; Day 17): 30.0 ± 11.0 s
Measured latencies to fall from Rotarod ([6]; Day 21): 22.1 ± 7.3 s
Measured latencies to fall from Rotarod ([6]; Day 24): 14.8 ± 4.3 s
Measured latencies to fall from Rotarod ([6]; Day 27): 15.8 ± 5.2 s
Measured latencies to fall from Rotarod ([6]; Day 31): 7.8 ± 2.4 s
